The assay addresses hT1R2/T1R3mosaicA (UniProt Q8TE23+Q925D8, A12W/A31M/A558R/A588V/A645S/A698V/A702T/A793V/A807V/C582S/C678S/E16H/E725V/F14L/F29L/F541I/F612A/F622V/F695L/H728R/I36V/I60P/I617V/I706V/I740A/I803L/K30R/K555R/K565R/K818R/K827G/L17P/L560F/L684P/L735F/L823M/L825Q/M19T/M644L/M744T/N52R/N547G/N58S/N63T/N675D/P545F/P561R/P564S/P61V/Q32K/Q53S/Q550E/Q56R/Q611L/Q757R/Q795R/Q831P/R632Q/S22P/S45E/S576L/S595F/S610P/S635P/S637R/S679G/S717H/T46A/T50G/T542A/T663I/T694M/T813A/V573A/V584A/V718M/V723A/V729T/V738A/V805L/V812A/V821L/W599R/W676R/W824R/Y680C/Y794L). The note with it: HEK293E cells.

Setting [1] is: Table 5, genes hT2/T3mA (hT1R2, T1R3mA).
The mark [2] stands for this setting: Table 6, genes hT2/T1R3mA (hT1R2, T1R3mA).

Read-outs that look alike come from different tables or passages of the source. Residues, ends and D or L forms follow the SMILES beside them.

Chain of hT1R2/T1R3mosaicA (Q8TE23 20-839, stated change not applied): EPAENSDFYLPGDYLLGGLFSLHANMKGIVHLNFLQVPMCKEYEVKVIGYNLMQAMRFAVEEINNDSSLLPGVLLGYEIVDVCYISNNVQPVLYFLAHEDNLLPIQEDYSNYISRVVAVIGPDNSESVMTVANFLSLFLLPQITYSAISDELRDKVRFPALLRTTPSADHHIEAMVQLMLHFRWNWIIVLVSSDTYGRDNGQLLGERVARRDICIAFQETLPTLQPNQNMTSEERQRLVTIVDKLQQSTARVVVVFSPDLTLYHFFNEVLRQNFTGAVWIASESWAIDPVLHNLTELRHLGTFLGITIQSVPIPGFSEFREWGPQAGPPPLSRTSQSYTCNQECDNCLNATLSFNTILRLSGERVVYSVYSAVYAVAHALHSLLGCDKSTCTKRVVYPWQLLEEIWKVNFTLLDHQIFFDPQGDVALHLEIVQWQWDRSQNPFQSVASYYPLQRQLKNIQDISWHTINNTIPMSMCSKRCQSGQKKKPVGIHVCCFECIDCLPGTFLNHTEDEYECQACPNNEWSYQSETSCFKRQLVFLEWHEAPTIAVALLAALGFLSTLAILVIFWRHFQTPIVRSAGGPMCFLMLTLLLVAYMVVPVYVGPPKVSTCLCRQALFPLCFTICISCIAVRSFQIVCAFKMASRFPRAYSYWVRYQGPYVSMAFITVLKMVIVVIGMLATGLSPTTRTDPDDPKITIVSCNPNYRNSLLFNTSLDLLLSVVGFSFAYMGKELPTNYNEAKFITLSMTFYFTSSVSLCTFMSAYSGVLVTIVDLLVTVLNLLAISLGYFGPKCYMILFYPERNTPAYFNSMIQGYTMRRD
Chain of hT1R2/T1R3mosaicA (Q925D8 with tags, fused parts or gaps with the stated changes limits assumed): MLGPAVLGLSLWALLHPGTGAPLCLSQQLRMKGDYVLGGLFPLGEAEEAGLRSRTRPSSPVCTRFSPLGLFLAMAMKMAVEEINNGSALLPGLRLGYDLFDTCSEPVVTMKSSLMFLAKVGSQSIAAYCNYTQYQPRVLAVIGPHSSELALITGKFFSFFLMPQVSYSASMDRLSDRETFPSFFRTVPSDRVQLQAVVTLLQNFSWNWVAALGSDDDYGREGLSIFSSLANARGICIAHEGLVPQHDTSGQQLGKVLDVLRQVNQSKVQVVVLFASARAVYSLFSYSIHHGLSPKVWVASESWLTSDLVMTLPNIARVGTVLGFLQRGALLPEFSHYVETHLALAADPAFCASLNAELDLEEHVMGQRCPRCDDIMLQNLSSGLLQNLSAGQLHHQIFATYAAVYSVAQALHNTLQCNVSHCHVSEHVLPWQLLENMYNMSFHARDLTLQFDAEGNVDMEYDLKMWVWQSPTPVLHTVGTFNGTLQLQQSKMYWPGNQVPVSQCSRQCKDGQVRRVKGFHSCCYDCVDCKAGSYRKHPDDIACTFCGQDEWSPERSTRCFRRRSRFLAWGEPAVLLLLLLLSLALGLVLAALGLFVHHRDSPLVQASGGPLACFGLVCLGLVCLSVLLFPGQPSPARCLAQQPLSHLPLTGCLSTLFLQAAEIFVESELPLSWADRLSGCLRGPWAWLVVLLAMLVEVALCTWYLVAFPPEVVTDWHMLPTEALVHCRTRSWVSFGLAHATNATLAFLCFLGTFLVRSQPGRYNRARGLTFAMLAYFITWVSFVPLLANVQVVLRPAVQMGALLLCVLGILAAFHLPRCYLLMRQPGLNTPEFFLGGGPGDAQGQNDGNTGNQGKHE

Take `CC1=CC(=O)NS(=O)(=O)O1` [Acesulfame K, acesulfame potassium]: the S/N turned out to be 3.7 under setting [1] and 3.7 under setting [2].
With `COC(=O)[C@H](Cc1ccccc1)NC(=O)[C@H](CC(=O)O)NCCCc1ccc(OC)c(O)c1` [Advantame, advantame], the S/N under setting [1] is on record as 7.6 and the S/N under setting [2] was determined as 7.5.
For `COC(=O)[C@H](Cc1ccccc1)NC(=O)[C@@H](N)CC(=O)O` [Aspartame, aspartame] (HELM PEPTIDE1{D.F.[CO[*:1]]}$$$$V2.0), in that order: 4.4 and 3.5.
The like results for `COc1ccc(CCC(=O)c2c(O)cc(O[C@@H]3O[C@H](CO)[C@@H](O)[C@H](O)[C@H]3O[C@@H]3O[C@@H](C)[C@H](O)[C@@H](O)[C@H]3O)cc2O)cc1O` [NHDC, neohesperidin dihydrochalcone] were, in that order, 2.9 and 3.8.
Consider `COC(=O)[C@H](Cc1ccccc1)NC(=O)[C@H](CC(=O)O)NCCC(C)(C)C` [Neotame, neotame], for which the S/N by setting is: under setting [1], 5.7; under setting [2], 6.5.
For `C[C@H](NC(=Nc1ccc(C#N)cc1)NCC(=O)O)c1ccccc1` [SC-45647, [3-[(S)-1-phenylethyl]-2-(4-cyanophenyl)guanidino]acetic acid], in that order: 5.9 and 6.8.
With `O=C1NS(=O)(=O)c2ccccc21.[Na]` [Saccharin Na, sodium saccharin], the S/N under setting [1] is listed as 4.3 and the S/N under setting [2] was determined as 4.2.
As to `OC[C@H]1O[C@H](O[C@]2(CCl)O[C@H](CCl)[C@@H](O)[C@@H]2O)[C@H](O)[C@@H](O)[C@H]1Cl` [Sucralose, sucralose], the S/N is on record as 6.0 under setting [1] and 5.9 under setting [2].
For `OC[C@H]1O[C@@](CO)(O[C@H]2O[C@H](CO)[C@@H](O)[C@H](O)[C@H]2O)[C@@H](O)[C@@H]1O` [Sucrose, sucrose], in that order: 2.6 and 2.3.

The values are drawn from patent US9341616B2, “Sweet taste receptor chimeric proteins and use thereof” (AJINOMOTO CO., INC., priority 2014, dated 2016).
